Data taken from patent US7018623B2, “B complex vitamin compositions that protect against cellular damage caused by ultraviolet light” (priority 2001, dated 2006).

Assays:
[1] = system: human volunteers exposed to direct sunlight; assay: Oral self-administration of B vitamins by human subjects, sunburning on continuous exposure to sunlight; type: in vivo; settings: for expected sunburning effects of continuous sun exposure: one patient, a year and a half, oral, B12 300–500 mcg/day, folic acid 2–5 mg/day, or both with niacinamide 200–500 mg/day
Method: 1. Over the period of four weeks a white middle aged couple in their forties on holiday in Mexico self administered 400–600 mcg vitamin B12/day in the form of 100 mcg tablets.
2. Over the period of a year and a half a […] self-administered vitamin B12 alone at 300 mcg to 500 mcg/day in the form of 100 mcg tablets, folic acid alone in the form of folic acid alone at 2 mg–5 mg/day in the form of 1 mg tablets or a combination of both vitamins in the same dose range taken with niacinamide 200 mg–500 mg/day in the form of 100 mg tablets. […] Normal burning rates returned within 24 hrs of the cessation of oral administration of the various formulations.
3. […] The published UVB index gave an expected time of continuous exposure to sunlight in the Edmonton AB area of 45 minutes. The maximum SPF (skin protection factor) was computed to be approximately 330/45=7.3.
5. These experiments have been repeated with approximately twenty human volunteers of various skin types ranging in age from 25 to 35 years. Most were female, one was a qualified physician, and many were qualified nurses or other healthcare professionals trained in observing symptoms of skin burning. Over the past year, a variety of different combinations of the three B complex vitamins were tested by exposure of these individuals to direct sunlight in locales such as Alberta Canada, Kelowna Canada, Mexico, Montego Bay Jamaica, San Diego Calif., Phoenix Ariz., Los Angeles Calif., and Honolulu, Hi. either in the course of their work or on vacation. The subjects had various skin types and were of many different nationalities.

[2] = human, topical application; cited from earlier work

Compound | expected sunburning effects of continuous sun exposure [1] | systemic absorption and urinary excretion after application to the skin [2] | rate of sunburning when exposed continuously to sunlight ([1]; 400–600 mcg/day oral, four weeks, couple in Mexico, versus past experience and versus not taking the supplement)
Nc1nc2ncc(CNc3ccc(C(=O)N[C@@H](CCC(=O)O)C(=O)O)cc3)nc2c(=O)[nH]1 [folic acid] | some amelioration of the expected sunburning effects | – | –
COc1ccc(C(=O)c2ccccc2)c(O)c1 [oxybenzone] | – | absorbed systemically and excreted in human urine soon after application to the skin | –
vitamin B12 | some amelioration of the expected sunburning effects | – | significant reduction in the rate of sunburning
